According to patent publication US10730836B2, “Forms of apremilast” (Johnson Matthey Public Limited Company, priority 2016, dated 2020):
One block for each molecule: values may come before it.

Tests used:
[1] = Exposure to humidity (XRPD); format: physicochemical; details: exposed to high humidity
Description: (§1) XRPD patterns were obtained using a Bruker D8 Advance equipped with a Cu Kα radiation source (λ=1.54° A), a 9-position sample holder and a LYNXEYE super speed detector. Samples were placed on zero-background, silicon plate holders for analysis. One skilled in the art would recognize that the ° 2θ values and the relative intensity values are generated by performing a peak search on the measured data and the d-spacing values are calculated by the instrument from the ° 2θ values using Bragg's equation. One skilled in the art would further recognize that the relative intensity for the measured peaks may vary as a result of sample preparation, orientation and instrument used, for example.
(§2) Apremilast Form K, an anhydrous form, is a unique crystalline phase. […] FIG. 4 is a representative XRPD pattern for a representative sample of apremilast Form K made according to Example 4.
(§3) Apremilast Form M, a solvate, is a unique crystalline phase. FIG. 5 is a representative XRPD pattern for a representative sample of apremilast Form M made according to Example 5.

[2] = Moisture uptake on exposure to air (DSC/TGA); format: physicochemical; details: DSC thermogram and TGA plot show water in sample
Description: DSC data were collected using a TA Instruments Q10 DSC. Approximately, samples (2-8 mg) were placed in unsealed but covered hermetic alodined aluminum sample pans and scanned from 30 to 300° C. at a rate of 10° C./min under a nitrogen purge of 50 mL/min.
TGA data were collected using a TA Instruments TGA Q500. Approximately, samples (5-10 mg) were placed in an open, pre-tared aluminum sample pan and scanned from 25 to 300° C. at a rate of 10° C./min using a nitrogen purge at 60 mL/min.
as §2

[3] = Solid form stability under stressed conditions (45° C., relative humidity>95%); format: physicochemical; details: under 45° C. and humid conditions (relative humidity>95%)
Description: (§4) Apremilast Form H, a solvate, is a unique crystalline phase. […] FIG. 1 is a representative XPRD pattern for a representative sample of apremilast Form H made according to Example 1. Apremilast Form H is stable under stressed conditions, i.e. at under 45° C. and humid conditions (relative humidity>95%).
as §4, with “I,” for “H,”, “2” for “1”, “XRPD” for “XPRD”, “I” for “H”, “2.” for “1.”

[4] = tested on: human rheumatoid synovial cells; details: cited from earlier work
phosphodiesterase (PDE4) = details: cited from earlier work
[5] = Drying under vacuum at 45° C. (solid form change); format: physicochemical; details: dried under vacuum at 45° C.
Description: Apremilast Form J, a solvate, is a unique crystalline phase. […] FIG. 3 is a representative XRPD pattern for a representative sample of apremilast Form J made according to Example 3.
as §3
[…] The resulting solids are analyzed by XRPD and identified as apremilast Form K.

[6] = Prolonged slurry (form conversion, XRPD); format: physicochemical; details: XRPD FIG. 6
Description: as §1, §3

SMILES: CCOc1cc([C@@H](CS(C)(=O)=O)N2C(=O)c3cccc(NC(C)=O)c3C2=O)ccc1OC [Form K, (+)-2-[1-(3-ethoxy-4-methoxyphenyl)-2-methylsulfonylethyl]-4-acetylaminoisoindoline-1,3-dione]
- form change when exposed to humidity [1]: does not undergo a significant change
- moisture uptake when exposed to air [2]: picks up moisture

SMILES: CCOc1cc([C@@H](CS(C)(=O)=O)N2C(=O)c3cccc(NC(C)=O)c3C2=O)ccc1OC [Apremilast, (+)-2-[1-(3-ethoxy-4-methoxyphenyl)-2-methylsulfonylethyl]-4-acetylaminoisoindoline-1,3-dione]
- inhibition of spontaneous production of TNF-alpha [4]: inhibits spontaneous production of TNF-alpha
- PDE4 inhibition (phosphodiesterase (PDE4)): inhibits PDE4

SMILES: CCOc1cc([C@@H](CS(C)(=O)=O)N2C(=O)c3cccc(NC(C)=O)c3C2=O)ccc1OC [Apremilast Form J, (+)-2-[1-(3-ethoxy-4-methoxyphenyl)-2-methylsulfonylethyl]-4-acetylaminoisoindoline-1,3-dione]
- solid form behaviour when dried under vacuum [5]: loses formic acid when dried under vacuum at 45 °C and undergoes a form change, resulting in the anhydrous Form K

Second part, led by results:

- stability under stressed conditions [3]: stable
SMILES: CCOc1cc([C@@H](CS(C)(=O)=O)N2C(=O)c3cccc(NC(C)=O)c3C2=O)ccc1OC [Apremilast Form H, (+)-2-[1-(3-ethoxy-4-methoxyphenyl)-2-methylsulfonylethyl]-4-acetylaminoisoindoline-1,3-dione]

- form conversion upon prolonged slurry [6]: converts to apremilast
SMILES: CCOc1cc([C@@H](CS(C)(=O)=O)N2C(=O)c3cccc(NC(C)=O)c3C2=O)ccc1OC [Form M, (+)-2-[1-(3-ethoxy-4-methoxyphenyl)-2-methylsulfonylethyl]-4-acetylaminoisoindoline-1,3-dione]
- solid form behaviour when dried under vacuum [5]: tends to lose some of the acetic acid when dried under vacuum at 45 °C and results in a semi-crystalline form
